Experimental data from patent US20150368195A1, “INDOLINE COMPOUNDS FOR TREATMENT AND/OR PREVENTION OF INFLAMMATION DISEASES” (Taipei Medical University, priority 2014, published 2015).
Entries after “also recorded” stand apart in the source; their conditions may differ.

Experiments:
RAW264.7 macrophages = test: M-CSF/RANKL-induced osteoclast formation; format: cell-based, Mouse; conditions: 5 nM MPT0G009 or 50 nM SAHA; M-CSF/RANKL 50 ng/mL, 5 days
Procedure: (§1) Cells were then tartrate resistant acid phosphatase (TRAP) stained, and the numbers of TRAP-positive multinuclear cells were counted. […] Images are at ×100 magnification, and the arrows indicate differentiated osteoclasts. (FIG. 6C) RAW264.7 cells were treated as in (FIG. 6B), then incubated with a fluorescein isothiocyanate (FITC)-conjugated anti-CD51/61 antibody and analyzed by flow cytometry. (FIGS. 6D and 6E) RAW264.7 cells (1×10^5) were transfected with 1 μg of pGL4.32[luc2P/NF-κB-RE/Hygro] (FIG. 6D) or pGL4.30[luc2P/NFAT-RE/Hygro] (FIG. 6E) for 24 h and then incubated for 30 min with or without MPT0G009 (5 nM). Then RANKL (50 ng/mL) was added and incubation was continued for an additional 24 h, after which luciferase activity was determined. Results in (FIGS. 6A, 6D, and 6E) are the means±SEM's for three independent experiments. **p<0.01 compared with the indicated controls.
Bone destruction is one characteristic of RA pathogenesis, resulting in joint dysfunction. Differentiation of mouse macrophages osteoclast-like cells can be induced in the presence of M-CSF and RANKL, which has been used as a model to investigate osteoclast differentiation. […] Subsequently, multinucleate tartrate resistant acid phosphatase (TRAP)-positive cells were counted.

NFATc1 = test: RANKL-induced NFATc1 luciferase reporter in RAW264.7 cells; format: cell-based, Mouse; conditions: 5 nM MPT0G009; RANKL 24 h
Procedure: as §1
We also assessed the effect of MTPOG009 on the DNA-binding activity of NF-kB and NFATc1, two pivotal transcriptional factors involved in RANKL-induced pathways for promoting osteoclast differentiation. When RAW264.7 cells that had been transiently transfected with reporter plasmids were treated with 5 nM MPT0G009 for 30 min before and during 24-h stimulation with RANKL, MPT0G009 inhibited RANKL-induced NF-kB (FIG. 6d) and NFATc1 (FIG. 6e) luciferase activity.

collagen I = test: TGF-β-induced collagen I production, Western blot; format: cell-based, human; conditions: WI-38 lung fibroblasts; 1 μM pretreatment; TGF-β 10 ng/mL 24 h
Procedure: Western blot analysis was performed. First, WI-38 lung fibroblasts were incubated with different concentrations of MPT0E028 (0.01, 0.03, 0.1, 0.3, or 1 μM) (FIG. 10A) or MPT0G009 (0.01, 0.03, 0.1, 0.3, or 1 μM) (FIG. 10B) for 30 min before and during incubation for 2 h with TGF-β (10 ng/mL). WI-38 lung fibroblasts were incubated with 1 μM MPT0E028 and MPT0G009 for 30 min and following another incubation for 2 h with 1 U/ml thrombin (FIG. 10C) and 10 nM ET-1 (FIG. 10D). The collagen I production from WI-38 lung fibroblasts stimulated by 10 ng/mL TGF-β for 24 h was inhibited with 1 μM MPT0E028 and MPT0G009 pretreatment (FIG. 10E).
WI-38 cells, a normal human embryonic lung fibroblast cell line, were obtained from American Type Culture Collection (Manassas, Va.). […]
Western blot analyses were performed as described previously (Chen B C, Chang Y S, Kang J C, Hsu M J, Sheu J R, Chen T L, et al. Peptidoglycan induces nuclear factor-kappaB activation and cyclooxygenase-2 expression via Ras, Raf-1, and ERK in RAW 264.7 macrophages. J Biol Chem 2004; 279:20889-97). […] The immunoreactivity was detected using enhanced chemiluminescence (ECL) following the manufacturer's instructions. Quantitative data were obtained using a computing densitometer with scientific imaging systems (Kodak, Rochester, N.Y.). […]

[1] = system: adjuvant-induced arthritis; test: adjuvant-induced arthritis (AIA) model; conditions: MPT0G009 25 mg/kg
Procedure: (FIG. 8B) Hind paw volumes in the indicated group of rats were measured using a digital plethysmometer on the indicated day after AIA induction. […] (FIG. 8D) Serum levels of interleukin (IL)-1β (left panel) and IL-6 (right panel) on day 21 as measured by enzyme-linked immunosorbent assay (ELISA). […] (FIG. 8F) The bone mineral density (BMD, in mg/mm^3) and the bone mineral content (BMC, in mg) values for the bone tissue of the tarsus were analyzed using CT Analysis Software.

[2] = system: tumor necrosis factor-α (TNF-α); test: LPS-induced TNF-α production in RAW 264.7 macrophages; conditions: Mus musculus, RAW264.7, read-out: IC50 TNF-α
HDAC1 and HDAC6 = test: overexpression of HDAC1 and HDAC6 in RAW264.7 macrophages or RA-FLS
Procedure: (TRAP) stained, and the numbers of TRAP-positive multinuclear cells were counted (FIG. 7D) or were incubated with a fluorescein isothiocyanate (FITC)-conjugated anti-CD51/61 antibody and analyzed by flow cytometry (FIG. 7E).

[3] = day 21, ELISA, SAHA 200 mg/kg, indomethacin 1 mg/kg
[4] = oral daily days 2 to 21, SAHA 200 mg/kg, indomethacin 1 mg/kg, vs vehicle

COc1ccc(S(=O)(=O)N2CCc3cc(C=CC(=O)NO)ccc32)cc1 [Compound 9, 3-[1-(4-methoxybenzenesulfonyl)-2,3-dihydro-1H-indol-5-yl]-N-Hydroxyacrylamide]
expression of osteoclast-specific marker CD51/61 (RAW264.7 macrophages): significantly inhibited
formation of M-CSF/RANKL-induced TRAP-positive cells (RAW264.7 macrophages): significantly inhibited; also recorded: inhibits
RANKL-induced NFATc1 luciferase activity (NFATc1): inhibited
collagen I production (collagen I): inhibited
bone destruction (micro-computed tomography) [1]: ameliorated
bone mineral density (BMD) and bone mineral content (BMC) [1]: prevented the decrease
cartilage degradation (safranin O staining of ankle joints) [1]: markedly reduced
decrease of osteoblasts [1]: apparently ameliorated
formation of osteoclasts (TRAP stain) [1]: significantly decreased
leukocyte infiltration, synovitis (hematoxylin and eosin staining) [1]: significantly reduced
levels of acetyl-histone H3 (immunohistochemical staining) [1]: increased levels
synoviocytes proliferation and inflammation (KI-67, COX-2 staining) ([1]; 25 mg/kg): inhibition; also recorded: suppresses
serum levels of IL-1β [1, 3]: significant decreases
serum levels of IL-6 [1, 3]: significant decreases
arthritis scores ([1]; day 21, SAHA 200 mg/kg, indomethacin 1 mg/kg, vs vehicle): significant reductions
paw swelling [1, 4]: significant reductions
paw volume [1, 4]: significant reductions
IC50 [2]: 0.52 µM
effect of HDAC overexpression on inhibition of M-CSF/RANKL-induced osteoclast differentiation and CD51/61 expression (HDAC1 and HDAC6; 5 nM MPT0G009, transfected RAW264.7): significantly reduced
effect of HDAC overexpression on inhibition of LPS-mediated NO or PGE2 release (HDAC1 and HDAC6; 10 μM MPT0G009 or 30 μM SAHA, HDAC1- and HDAC6-coexpressing RAW264.7 or RA-FLS): significantly reduced the inhibitory effects
